In patent publication US20170121315A1, “HETEROBICYCLICALLY SUBSTITUTED 4-OXOBUTANE ACID DERIVATIVES AND USE THEREOF” (priority 2014, published 2017):

Legend:
Assay type in all cases: biochemical
[1] = molecular target: T1, MMP-7 (Homo sapiens, UniProt P09237); test: In vitro MMP-7 inhibition test; details: human MMP-7
T1 construct: purchased R&D Systems 907-MP
T1 sequence (P09237 95-267): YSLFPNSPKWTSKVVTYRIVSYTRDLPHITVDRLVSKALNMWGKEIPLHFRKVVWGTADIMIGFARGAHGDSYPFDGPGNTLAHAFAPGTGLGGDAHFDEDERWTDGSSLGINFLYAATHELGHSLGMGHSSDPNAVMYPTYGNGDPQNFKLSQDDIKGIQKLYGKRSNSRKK
Description: (§1) The MMP-mediated amidolytic cleavage of a suitable peptide substrate leads to an increase in fluorescent light here too. The signal intensity of the fluorescent light is directly proportional to the enzyme activity. The active concentration of a test compound at which half the enzyme is inhibited (50% signal intensity of the fluorescent light) is reported as the IC50 value.
(§2) Recombinant MMP-7 (from R&D Systems, 907-MP) is chemically activated in accordance with the manufacturer's instructions using APMA. 1 μl of the test compound to be analysed (as a solution in DMSO, suitable concentrations e.g. 1 nM to 30 μM) is pipetted into 24 μl of activated enzyme (final concentration e.g. 0.5 nM) in reaction buffer (50 mM Tris/HCl pH 7.5, 10 mM CaCl2, 150 mM NaCl, 0.05% Brij®-35) in a white 384-hole microtiter plate (MTP). The enzymatic reaction is started by adding the intramolecularly quenched Mca-Pro-Leu-Gly-Leu-Dpa(Dnp)-Ala-Arg-NH2 substrate (final concentration e.g. 10 μM; R&D Systems, ES-001), so as to result in a total test volume of 50 μl. The course of the MMP-7 reaction is measured by measuring the fluorescence intensity (excitation 320 nm, emission 410 nm) over a suitable period of time (e.g. over 120 min at a temperature of 32° C.).

[2] = molecular target: T2, MMP-9 (Homo sapiens, UniProt P14780); test: In vitro MMP-9 inhibition test; details: human MMP-9
T2 construct: purchased R&D Systems 911-MP
T2 sequence (P14780 107-707 limits assumed): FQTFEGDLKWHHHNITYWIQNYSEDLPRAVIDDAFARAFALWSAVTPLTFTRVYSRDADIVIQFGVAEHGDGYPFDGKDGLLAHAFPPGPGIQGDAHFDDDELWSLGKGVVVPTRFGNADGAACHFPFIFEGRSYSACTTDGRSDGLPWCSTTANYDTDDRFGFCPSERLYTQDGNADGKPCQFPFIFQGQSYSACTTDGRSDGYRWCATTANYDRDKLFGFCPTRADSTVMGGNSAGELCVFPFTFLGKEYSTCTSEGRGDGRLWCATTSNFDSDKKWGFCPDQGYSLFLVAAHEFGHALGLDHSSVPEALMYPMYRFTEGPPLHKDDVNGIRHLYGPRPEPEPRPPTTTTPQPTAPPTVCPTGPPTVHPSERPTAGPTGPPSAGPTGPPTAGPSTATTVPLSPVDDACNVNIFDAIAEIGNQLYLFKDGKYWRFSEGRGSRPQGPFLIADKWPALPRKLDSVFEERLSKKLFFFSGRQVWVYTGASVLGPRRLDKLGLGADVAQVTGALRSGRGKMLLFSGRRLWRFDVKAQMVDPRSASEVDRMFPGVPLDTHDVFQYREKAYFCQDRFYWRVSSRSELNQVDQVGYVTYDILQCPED
Description: as §1
as §2, with “MMP-9 (R&D” for “MMP-7 (from R&D”, “911-MP)” for “907-MP)”, “0.1” for “0.5”, “MMP-9” for “MMP-7”

[3] = molecular target: T3, MMP-14 (Homo sapiens, UniProt P50281); test: In vitro MMP-14 inhibition test; details: human MMP-14
T3 construct: purchased R&D Systems 918-MP
Description: as §1
Recombinant MMP-14 (R&D Systems, 918-MP) is enzymatically activated in accordance with the manufacturer's instructions using recombinant furin (R&D Systems, 1503-SE). 1 μl of the test compound to be analysed (as a solution in DMSO, suitable concentrations e.g. 1 nM to 30 μM) is pipetted into 24 μl of activated enzyme (final concentration e.g. 0.5 nM) in reaction buffer (50 mM Tris/HCl pH 7.5, 10 mM CaCl2, 150 mM NaCl, 0.05% Brij®-35) in a white 384-hole microtiter plate (MTP). The enzymatic reaction is started by adding the intramolecularly quenched Mca-Lys-Pro-Leu-Gly-Leu-Dpa(Dnp)-Ala-Arg-NH2 substrate (final concentration e.g. 5 μM; R&D Systems, ES-010), so as to result in a total test volume of 50 μl. The course of the MMP-14 reaction is measured by measuring the fluorescence intensity (excitation 320 nm, emission 410 nm) over a suitable period of time (e.g. over 120 min at a temperature of 32° C.).

In the case of `O=C(CC(CCn1nnc2ccccc2c1=O)C(=O)O)c1cc2cc(OCCCC(F)(F)F)ccc2o1` (single isomer, unassigned; enantiomer 2) [Example 13, (+)-4-Oxo-2-[2-(4-oxo-1,2,3-benzotriazin-3(4H)-yl)ethyl]-4-[5-(4,4,4-trifluorobutoxy)-1-benzofur-2-yl]butanoic acid (enantiomer 2)], the IC50 [1] is reported as > 40 µM, the IC50 [2] is reported as 3.8 µM and the IC50 [3] is reported as 17 µM.
`O=C(CC(CCn1nnc2ccccc2c1=O)C(=O)O)c1cc2ccc(OCCCC3CCCCC3)cc2o1` (racemic) [Example 71, (+/−)-4-[6-(3-Cyclohexylpropoxy)-1-benzofur-2-yl]-4-oxo-2-[2-(4-oxo-1,2,3-benzotriazin-3(4H)-yl)ethyl]butanoic acid] was tested, and the IC50 [1] was > 40 µM, the IC50 [2] was > 40 µM and the IC50 [3] was > 40 µM.
In the case of `O=C(CC(CCn1nnc2ccccc2c1=O)C(=O)O)c1onc2cc(OCc3ccccc3)ccc12` (racemic) [Example 156, (+/−)-4-[6-(Benzyloxy)-2,1-benzoxazol-3-yl]-4-oxo-2-[2-(4-oxo-1,2,3-benzotriazin-3(4H)-yl)ethyl]butanoic acid], the IC50 [1] is reported as > 40 µM, the IC50 [2] is reported as 0.17 µM and the IC50 [3] is reported as 9.3 µM.
With `O=C(CC(CCn1nnc2ccccc2c1=O)C(=O)O)c1cc2cc(OCCc3ccc(Cl)cc3)ccc2o1` (racemic) [Example 2, (+/−)-4-{5-[2-(4-Chlorophenyl)ethoxy]-1-benzofur-2-yl}-4-oxo-2-[2-(4-oxo-1,2,3-benzotriazin-3(4H)-yl)ethyl]butanoic acid] the IC50 [1] was > 40 µM, the IC50 [2] was 24 µM and the IC50 [3] was > 40 µM.
For `O=C(O)[C@H]1[C@H](Cn2nnc3ccc(C(F)(F)F)cc3c2=O)CC[C@@H]1C(=O)c1cc2cc(OCCc3ccccc3)ccc2o1` (racemic) [Example 157, (+/−)-(1RS,2SR,5RS)-2-{[4-Oxo-6-(trifluoromethyl)-1,2,3-benzotriazin-3(4H)-yl]methyl}-5-{[5-(2-phenylethoxy)-1-benzofur-2-yl]carbonyl}cyclopentanecarboxylic acid (racemate)], the IC50 [1] was 0.16 µM, the IC50 [2] was 0.19 µM and the IC50 [3] was 0.7 µM.
For `O=C(CC(CCn1nnc2ccccc2c1=O)C(=O)O)c1cc2cc(OCC3CCCCC3)ccc2o1` (racemic) [Example 8, (+/−)-4-[5-(Cyclohexylmethoxy)-1-benzofur-2-yl]-4-oxo-2-[2-(4-oxo-1,2,3-benzotriazin-3(4H)-yl)ethyl]butanoic acid], the IC50 [1] was > 40 µM, the IC50 [2] was 13 µM and the IC50 [3] was > 40 µM.
`O=C(CC(CCn1nnc2ccccc2c1=O)C(=O)O)c1cc2cc(OCCc3ccccc3Cl)ccc2o1` (racemic) [Example 1, (+/−)-4-{5-[2-(2-Chlorophenyl)ethoxy]-1-benzofur-2-yl}-4-oxo-2-[2-(4-oxo-1,2,3-benzotriazin-3(4H)-yl)ethyl]butanoic acid] was tested, and the IC50 [1] was > 40 µM, the IC50 [2] was > 40 µM and the IC50 [3] was > 40 µM.
`CCCCCOc1ccc2cc(C(=O)CC(CCn3nnc4ccccc4c3=O)C(=O)O)sc2c1` (racemic) [Example 118, (+/−)-4-Oxo-2-[2-(4-oxo-1,2,3-benzotriazin-3(4H)-yl)ethyl]-4-[6-(pentyloxy)-1-benzothiophen-2-yl]butanoic acid] showed an IC50 [1] of 30 µM, an IC50 [2] of 1.2 µM and an IC50 [3] of 19 µM.
`O=C(CC(CCn1nnc2ccccc2c1=O)C(=O)O)c1coc2cc(OCC3CCCC3)ccc12` (single isomer, unassigned; (+)) [Example 80, (+)-4-[6-(Cyclopentylmethoxy)-1-benzofur-3-yl]-4-oxo-2-[2-(4-oxo-1,2,3-benzotriazin-3(4H)-yl)ethyl]butanoic acid] was tested, and the IC50 [1] was > 40 µM, the IC50 [2] was 0.28 µM and the IC50 [3] was 1.9 µM.
With `O=C(CC(CCn1nnc2ccccc2c1=O)C(=O)O)c1cc2cc(OCc3ccc(F)cc3)ccc2o1` (single isomer, unassigned; (+)) [Example 23, (+)-4-{5-[(4-Fluorobenzyl)oxy]-1-benzofur-2-yl}-4-oxo-2-[2-(4-oxo-1,2,3-benzotriazin-3(4H)-yl)ethyl]butanoic acid] the IC50 [1] was > 40 µM, the IC50 [2] was 13 µM and the IC50 [3] was 15 µM.
For `O=C(CC(CCn1nnc2ccccc2c1=O)C(=O)O)c1cc2cc(OCCC3CCOCC3)ccc2o1` (racemic) [Example 6, (+/−)-4-Oxo-2-[2-(4-oxo-1,2,3-benzotriazin-3(4H)-yl)ethyl]-4-{5-[2-(tetrahydro-2H-pyran-4-yl)ethoxy]-1-benzofur-2-yl}butanoic acid], the IC50 [1] was > 40 µM, the IC50 [2] was 3.4 µM and the IC50 [3] was 37 µM.
`O=C(CC(CCn1nnc2ccccc2c1=O)C(=O)O)c1coc2cc(OCCC3CCOCC3)ccc12` (racemic) [Example 74, (+/−)-4-Oxo-2-[2-(4-oxo-1,2,3-benzotriazin-3(4H)-yl)ethyl]-4-{6-[2-(tetrahydro-2H-pyran-4-yl)ethoxy]-1-benzofur-3-yl}butanoic acid] was tested, and the IC50 [1] was > 40 µM, the IC50 [2] was 0.18 µM and the IC50 [3] was 1.4 µM.
With `O=C(CC(CCn1nnc2ccccc2c1=O)C(=O)O)c1cc2cc(OCc3ccc(C(F)(F)F)cc3)ccc2o1` (racemic) [Example 44, (+/−)-4-Oxo-2-[2-(4-oxo-1,2,3-benzotriazin-3(4H)-yl)ethyl]-4-(5-{[4-(trifluoromethyl)benzyl]oxy}-1-benzofur-2-yl)butanoic acid] the IC50 [1] was > 40 µM, the IC50 [2] was 9.9 µM and the IC50 [3] was 13 µM.
`CCCOc1ccc2cc(C(=O)CC(CCn3nnc4ccccc4c3=O)C(=O)O)oc2c1` (racemic) [Example 58, (+/−)-4-Oxo-2-[2-(4-oxo-1,2,3-benzotriazin-3(4H)-yl)ethyl]-4-(6-propoxy-1-benzofur-2-yl)butanoic acid] was tested, and the IC50 [1] was > 40 µM, the IC50 [2] was 10 µM and the IC50 [3] was 2.2 µM.
`O=C(CC(CCn1nnc2ccccc2c1=O)C(=O)O)c1cc2ccc(OCC3CC3)cc2s1` (racemic) [Example 111, (+/−)-4-[6-(Cyclopropylmethoxy)-1-benzothiophen-2-yl]-4-oxo-2-[2-(4-oxo-1,2,3-benzotriazin-3(4H)-yl)ethyl]butanoic acid] showed an IC50 [1] of 4.1 µM, an IC50 [2] of 1.1 µM and an IC50 [3] of 6 µM.
With `CCCCCCCOc1ccc2cc(C(=O)CC(CCn3nnc4ccccc4c3=O)C(=O)O)oc2c1` (single isomer, unassigned; (+)) [Example 69, (+)-4-[6-(Heptyloxy)-1-benzofur-2-yl]-4-oxo-2-[2-(4-oxo-1,2,3-benzotriazin-3(4H)-yl)ethyl]butanoic acid acid] the IC50 [1] was > 40 µM, the IC50 [2] was 13 µM and the IC50 [3] was > 40 µM.
For `O=C(CC(CCn1nnc2ccccc2c1=O)C(=O)O)c1noc2cc(OCC3CCCCC3)ccc12` (racemic) [Example 153, (+/−)-4-[6-(Cyclohexylmethoxy)-1,2-benzoxazol-3-yl]-4-oxo-2-[2-(4-oxo-1,2,3-benzotriazin-3(4H)-yl)ethyl]butanoic acid], the IC50 [1] was > 40 µM, the IC50 [2] was 0.45 µM and the IC50 [3] was 5.5 µM.
`Cc1cccc(COc2ccc3oc(C(=O)CC(CCn4nnc5ccccc5c4=O)C(=O)O)cc3c2)c1` (racemic) [Example 51, (+/−)-4-{5-[(3-Methylbenzyl)oxy]-1-benzofur-2-yl}-4-oxo-2-[2-(4-oxo-1,2,3-benzotriazin-3(4H)-yl)ethyl]butanoic acid] was tested, and the IC50 [1] was 35 µM, the IC50 [2] was 30 µM and the IC50 [3] was > 40 µM.
